Measurements: patent US20140142055A1, “METHODS OF TREATING RECURRENT MEIBOMIAN GLANDS DISORDER AND THEREBY DECREASING THE FREQUENCY OF RECURRENCE” (INSITE VISION CORPORATION, priority 2011, published 2014)

Assay: Release of fluorometholone from the gelled aqueous polymer suspension in the rabbit eye, measured in the aqueous humor
Format: in vivo
Details: topical sustained-release aqueous suspension of lightly cross-linked carboxyl-containing polymer
Protocol: The viscous gels that result from fluid eye drops delivered by means of the aqueous suspensions have residence times in the eye ranging from about 2 to about 12 hours, e.g., from about 3 to about 6 hours. The active ingredients contained in these ophthalmically acceptable vehicles can be released from the gels at rates that depend on such factors as the active ingredient itself and its physical form, the extent of drug loading and the pH of the system, as well as on any drug delivery adjuvants, such as ion exchange resins compatible with the ocular surface, which can also be present.

release rates in the rabbit eye, as measured by fluorometholone contained in the aqueous humor: in excess of four hours
Structure (SMILES): CC(=O)[C@@]1(O)CC[C@H]2[C@@H]3C[C@H](C)C4=CC(=O)C=C[C@]4(C)[C@@]3(F)[C@@H](O)C[C@@]21C [fluorometholone]
